“Also recorded” adds a separate entry of the source.
What was measured:
[1] = tested on: mouse bone marrow cells; test: formation of erythroid colonies from mouse bone marrow in methylcellulose; format: cell-based
Procedure: (§1) Mouse or human bone marrow cells were stimulated in methylcellulose for 7 days (mouse) or 14 days (human) with non-peptide EPO-R modulators. Formation of erythroid colonies was observed. (See FIGS. 6 to 8)
Bone marrow cells were isolated from mouse femurs. Cells were washed twice with PBS and resuspended to a density of 6.5×10^6 cells/ml in media. 300 μl (6.5×10^5/ml) of cells were mixed with 1.5 ml of methylcellulose media (Stemcell Technology) to which the desired concentration of compound or the EPO was added. The mixture was poured onto 35 mm dishes; all the conditions are performed in duplicates. The incubation was for […] at 37° C., 5% CO2. The colonies were scored on day seven.
After thawing methylcellulose overnight, the next morning, 20 ml of Iscove's MDM+2%FBS is added to the bottle to achieve 100 ml total. The bottle is mixed for at least 30 seconds and settled for about 10 minutes. 10 cc syringes are used to aliquot 3 ml per minisorp tube.

[2] = tested on: human bone marrow cells; test: formation of erythroid colonies from human bone marrow in methylcellulose; format: cell-based
Procedure: as §1
(1) Dilute human bone marrow 1:1 with sterile PBS. (2) Slowly layer bone marrow into 50 ml tubes containing 20 ml of LSM Lymphocyte separation medium (ICN/Cappel—cat #50494). 50 ml bone marrow will yield 2 tubes. (3) Spin tubes at 2000 rpm for 30 minutes with brake off. (4) Slowly take out the middle layer using a 10 ml pipette and transfer into a new 50 ml tube. (5) Add PBS+0.5% BSA+5 mM EDTA to tube for washing. (6) Spin tube for 5 minutes at speed 4 with brake on. (7) Repeat wash step 2 more times. (8) After 3rd wash, resuspend pellet in SF Iscoves' MDM medium. (9) Count by diluting cells in 3% acetic acid. (10) Dilute cells to desired concentration (5×10^5 cells/ml) and seed onto methylcellulose.
(1) Tubes containing 3.0 ml of methylcellulose medium (Stemcell Technology, cat # H4230) supplemented with 50 ng/ml hSCF are prepared. (Alternatively the methylcellulose could be supplemented with 50 ng/ml hSCF, 20 ng/ml of hIL-3 and hIL-6). (2) Compounds or EPO of desired concentrations are added to the tubes. “Control” tubes or tubes that will receive EPO are supplemented with DMSO to a final concentration of 0.16%. […] Colonies are scored on day twelve.

[3] = tested on: TF-1 and UT-7 cells; test: biological testing in cell lines (cell proliferation and cell signaling); format: cell-based; conditions: biological testing in cell line
Text: Compounds identified in the initial screen were further tested for their biological activity in two assays: a cell proliferation assay and a cell signaling assay in TF-1 and UT-7 cells. The hit rate in cell proliferation was 0.16%; hit rate in cell signaling was 0.25%.
Compounds identified in the initial screen were further tested for their biological activity in two assays: a cell proliferation assay and a cell signaling assay in TF-1 cells. The hit rate in cell proliferation was 0.16%; hit rate in cell signaling was 0.25%.

[4] = tested on: cortical neurons; test: glutamate-induced neuronal death in cultured cortical neurons; format: cell-based, rats; conditions: 300 μM glutamate for 24 hours
Procedure: Primary cultured cells were used as a model to evaluate the subject small molecule effect on CNS. Glutamate neurotoxicity can be most directly studied using neurons prepared from the brain at the late embryonic stage and subsequently cultured for maturation. To examine the effect of the subject small molecules (E5A24 and E5A29) on glutamate-induced neuronal death, cortical neurons isolated from embryonic day 18 rats, were cultured for 10 days. Subsequently, neurons were treated for 24 hours with or without the subject small molecules, and further exposed to 300 μM glutamate for 24 hours. After glutamate was washed out, the cells were cultured for another 24 hours. During the glutamate challenge and subsequent culture, the subject small molecules were absent. Finally, the cell viability was examined. […] Experiments were performed according to the literature (Morishita et. al., Neuroscience 76, 105, 1997).

[5] = tested on: TF-1 cells; test: cell proliferation; format: cell-based; conditions: 96 hours
Procedure: TF-1 cells were stimulated for 96 hours with different non-peptide EPO-R modulators, and it was observed that the non-peptide EPO binding molecules stimulated cellular proliferation in dose-responsive manner and to the extent of the natural hormone.

[6] = tested on: EPO-Receptor down stream signaling pathway; test: in vitro signaling (phosphorylation of EPO-R, JAK2, STAT1, STAT3, STAT5); format: cell-based; conditions: UT-7 cells
Procedure: UT-7 cells were grown in Minimal Essential Medium Alpha (MEM-α) containing 20% FBS, 1.5 g/L NaHCO3, 5 ng/ml GM-CSF, and 100U Penicillin/100 μg/ml Streptomycin Sulfate (“P/S”), in T150 flasks (60 ml/flask) at 37° C., 5% CO2 to a density of no more than 5×10^5 cells/ml. The cells were starved overnight in MEM-α containing 10% FBS, 1.5 g/L NaHCO3 and P/S in T150 flasks (60 ml/flask) at a density of 5×10^5 cells/ml, in 5% CO2, 37° C. The cells were then centrifuged in a swinging-bucket rotor at 200×g for 5 minutes at room temperature. The supernatant was removed, and the cells pooled into one 50 ml conical tube. The cells were washed twice with serum-free medium (MEM-α containing 1.5 g/L NaHCO3 and P/S). After the last wash, the cells were resuspended to a density of 1×10^7 cells/ml in serum-free medium. The cells were then placed in 15 ml conical tubes in 1 ml aliquots and incubated with the caps loosened for 1 hour at 37° C., 5% CO2. Every 10 minutes, the lower portion of each tube was tapped (flicked) several times to prevent the cells from settling (please note, this step is very important!)
It was also observed that EPO-R was phosphorylated when stimulated with non-peptide EPO-R modulators. (See FIG. 4) […]

[7] = tested on: P-19 cells; test: cell survival of P-19 cells after withdrawal of serum; format: cell-based; conditions: P19 cells; treated 24 hours before, serum withdrawn for 48 hours
Procedure: Experiments were performed according to the described protocol. The anti-apoptotic effect of the subject small molecules was evaluated in P-19 cells (a neural-like embryonal carcinoma cell line) that undergo apoptosis upon withdrawal of serum. Briefly, cells were treated with small molecules for 24 hours prior to serum withdrawal. Serum was withdrawn for 48 hours in the presence or absence of a subject small molecule (EM5 and E5A24). At the end of that period, cell survival was evaluated. […] This Figure is representative of the experiment and of the subject small molecules. The experiments were performed according to literature procedures (Siren et.al., Proc. Nat. Acad. Sci. 98, 4044, 2001). Cell survival was determined according to the protocol described for cellular proliferation.

[8] = tested on: Bcl-xl protein; test: up-regulation of Bcl-xl expression (immunoprecipitation, western blot); format: cell-based
Procedure: When the subject compounds were tested for anti-apoptotic effect was evaluated, these antibodies were used: Anti-Bcl-X1/s antibody (Santa Cruz Biotechnology, SC-1041), Anti-Bcl-X1 antibody (Santa Cruz Biotechnology, SC8392)
A number of molecules of the subject invention were evaluated in in vitro systems that reflect the condition of cerebral ischemia and metabolic stress. Firstly, it is known that one of the mechanisms by which EPO prevents neuronal apoptosis is by up-regulating the expression levels of Bcl-x1 protein, which is a well-described anti-apoptotic protein. Thus, cells-lines that are known to be EPO responsive (UT-7 and TF-1, used in previous studies) were used as a cellular system to examine the small molecules' anti-apoptotic activity through EPO-R.
The evaluation was performed by starving the cells, stimulating the cells with compounds at appropriate concentrations (or no stimulation for control samples) and immunoprecipitating the cell lysates with antibody specific to both forms (short and long) of Bcl-x1 protein. The amount of Bcl-x1 (long protein form, known to have anti-apoptotic activity) protein was evaluated by western blot analysis.

Question: With `Cn1ncc(S(=O)Oc2ccccc2)c(Cl)c1=O` (centres unmarked) [Cmpnd E6] as the molecule, how does the “erythroid colony formation (CFU-e)” value [1] read?
Answer: stimulate CFU-e formation to the same extent as EPO

Question: What about the “erythroid colony formation (CFU-e)” value [2] of the same molecule?
Answer: stimulate CFU-e formation to the same extent as EPO

Question: What about the “maximum activity compared to EPO natural hormone” value [3] of the same molecule?
Answer: maximum activity comparable to that of the maximum activity of EPO

Question: Which results are given for `Cc1n[nH]c2c1C(c1ccco1)C1=C(CC(C)(C)CC1=O)N2` (centres unmarked) [Cmpnd E5A29]?
Answer: cell survival of cortical neurons after glutamate challenge [4]: prevented glutamate induced neuronal death in a dose-responsive manner; also recorded: increased cell survival; increase of cell survival ([4]; cortical neurons): 60%

Question: Which results are given for `Cc1ccc(Cl)cc1Nc1nc2nc(C)c(NCC3CC3)cn2n1` [Cmpnd E5]?
Answer: cellular proliferation [5]: proliferative effect; erythroid colony formation (CFU-e) [1]: stimulate CFU-e formation to the same extent as EPO; erythroid colony formation (CFU-e) [2]: stimulate CFU-e formation to the same extent as EPO; maximum activity compared to EPO natural hormone [3]: maximum activity comparable to that of the maximum activity of EPO; activation of EPO-R [6]: activation of EPO-R

Question: Which “cell viability / protection from apoptosis after withdrawal of serum” value [7] does the source give for `Cc1cc(NCC2CC2)n2nc(Nc3cc(Cl)ccc3C)nc2n1` [EM5] here?
Answer: protect cells from apoptosis; also recorded: increased cell viability

Question: And the Bcl-xl expression ([8]; TF-1 cells)?
Answer: up-regulation of Bcl-xl expression

Question: What about the Bcl-xl expression ([8]; UT-7 cells) of the same molecule?
Answer: up-regulation of Bcl-xl expression

Question: What about the Bcl-x1 protein up-regulation ([8]; both cell lines (UT-7 and TF-1)) of the same molecule?
Answer: induced up-regulation of Bcl-x1 protein in a dose-responsive manner

— patent US7037902B2, “Affinity small molecules for the EPO receptor” (Receptron, Inc., priority 2002, dated 2006)
